Results from US10174007B2, “Substituted 3-azabicyclo[3.1.0]hexanes as ketohexokinase inhibitors” (Pfizer Inc., priority 2015, dated 2019).

Columns and labels:
KHK-C [1] = molecular target: T1, KHK-C (Homo sapiens (Human), UniProt P50053); assay: Assay C: KHK assay at high fructose (8 mM) and ATP (2 mM), 1 nM KHK-C; assay type: biochemical
Source text: (§1) A screening assay was developed for KHK involving a coupled enzyme system which used the product of the KHK reaction to drive an absorbance signal in kinetic mode. KHK takes fructose and ATP and converts it to F1P and ADP. ADP then serves as substrate to pyruvate kinase which converts PEP to pyruvate which is then reduced to lactate by lactate dehydrogenase with the concomitant oxidation of NADH to NAD+. The resulting depletion of NADH was monitored by measuring absorbance at 340 nm.
(§2) Recombinant human KHK-C and KHK-A were expressed in E. coli as a His-tagged fusion protein and purified using Ni-NTA chromatography.
A third KHK assay, referred to as Assay C, was performed at high fructose and ATP concentrations, conditions that would be more consistent with physiological concentrations of the natural substrates of the KHK enzyme. Assay C was conducted as described above for Assay B except using 8 mM fructose and 2 mM ATP, and compound concentration range of 10 pM to 1 μM or 50 pM to 5 μM using half-log dilution scheme.

KHK-C [2] = molecular target: T1, KHK-C; assay: Assay B: KHK assay with 1 nM KHK-C, absorbance for 3 hours
Source text: as §1
The reaction was initiated with addition of 0.2 mM ATP, and the absorbance was monitored for 3 hours at 340 nm. Reaction rates and IC50 values were calculated as described above.

KHK-C [3] = molecular target: T1, KHK-C; assay: Assay A: coupled-enzyme KHK absorbance assay, 10 nM KHK-C; conditions: 10 nM KHK-C, 0.8 mM fructose, 0.2 mM ATP, avg of (#) runs
Source text: as §1, §2
Compounds were prepared in DMSO as 4 mM stocks, diluted using an 11-point half-log scheme on a Biomek FX (Beckman Coulter), and incubated at rt for 30 minutes with the reaction mixture containing 50 mM HEPES, pH 7.4, 140 mM KCl, 3.5 mM MgCl2, 0.8 mM fructose, 2 mM TCEP, 0.8 mM PEP, 0.7 mM NADH, 0.01% Triton X-100, 30 U/mL pyruvate kinase-lactate dehydrogenase, and 10 nM purified KHK-C. The compound concentration in each well ranged from 1 nM to 100 μM. The reaction was initiated with the addition of 0.2 mM ATP. The absorbance was measured for 30 minutes on a SpectraMax reader (Molecular Devices) after ATP was added. The concentrations provided are based on the final mixture volume of 40 μL (referred to as the final concentration).
Controls: N8-(cyclopropylmethyl)-N4-(2-(methylthio)phenyl)-2-(piperazin-1-yl)pyrimido[5,4-d]pyrimidine-4,8-diamine at 2 μM final concentration was used as high percent effect (HPE) control, and 2.5% DMSO which was present in all reaction wells was used as zero percent effect (ZPE) control. Reaction rates were obtained for 300-1800 seconds time window in units of 1000*AU/min (absorbance unit per minute), and average values for ZPE and HPE controls from 16 wells each were calculated, AveZPE and AveHPE, respectively.
Percent inhibition (% inhibition) was calculated for each well using this equation:
For each compound tested, the IC50 provided is the average based on at least two separate assays conducted on separate days.

KHK-A = KHK-A (Homo sapiens (Human), UniProt P50053); assay: Assay D: KHK assay with 1 nM human KHK-A; conditions: read-out: IC50 (nM) Assay D 1 nM KHK-A, 8 mM fructose, 0.2 mM ATP, avg of (#) runs
Source text: as §1
A fourth assay, referred to as Assay D, was performed using human KHK-A to assess the potency of compounds in inhibiting activity of this enzyme. […] Reaction rates and IC50 values were calculated as described above.

[4] = read-out: IC50 (nM) Assay C 1 nM KHK-C, 8 mM fructose, 2 mM ATP, avg of (#) runs
[5] = read-out: IC50 (nM) Assay B 1 nM KHK-C, 1 nM KHK-C, 0.2 mM ATP, 3 hours, avg of (#) runs
[6] = read-out: IC50 (nM) Assay A 10 nM KHK-C
[7] = read-out: IC50 (nM) Assay A (Table 4)

T1 sequence (P50053 whole entry): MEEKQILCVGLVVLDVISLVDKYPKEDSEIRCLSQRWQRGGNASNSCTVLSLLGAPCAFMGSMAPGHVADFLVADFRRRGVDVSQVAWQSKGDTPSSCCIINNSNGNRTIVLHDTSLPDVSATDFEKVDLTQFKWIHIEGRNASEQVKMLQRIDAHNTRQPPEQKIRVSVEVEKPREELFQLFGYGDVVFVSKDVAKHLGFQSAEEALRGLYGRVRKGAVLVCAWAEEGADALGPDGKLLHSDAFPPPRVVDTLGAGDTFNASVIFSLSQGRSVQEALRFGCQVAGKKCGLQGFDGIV
KHK-A, sequence (P50053 other isoform, or with tags, fused parts or gaps): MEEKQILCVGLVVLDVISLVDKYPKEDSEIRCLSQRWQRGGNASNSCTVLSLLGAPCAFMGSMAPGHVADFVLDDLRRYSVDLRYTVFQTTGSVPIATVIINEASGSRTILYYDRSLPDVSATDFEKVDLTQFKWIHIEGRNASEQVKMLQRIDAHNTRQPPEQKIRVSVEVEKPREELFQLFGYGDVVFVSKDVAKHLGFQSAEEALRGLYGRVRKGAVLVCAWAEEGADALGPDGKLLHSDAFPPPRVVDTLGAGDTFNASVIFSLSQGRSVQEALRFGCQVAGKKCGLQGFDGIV

IC50 (KHK-C [1]; [4]) | IC50 (KHK-C [2]; [5]) | IC50 (KHK-C [3]; [6]) | IC50 (KHK-C [3]; [7]) | IC50 (KHK-A) | IC50 (KHK-C [1]; 8 mM fructose, 2 mM ATP, avg of (#) runs) | IC50 (KHK-C [2]) | Compound
2.6 nM | 1.5 nM | 4.4 nM | 4.4 nM | – | – | – | C[C@H]1[C@H](O)CN1c1nc(N2C[C@@H]3[C@@H](CC(=O)O)[C@@H]3C2)c(F)c(C(C)(F)F)c1C#N [Example 50, [(1R,5S,6R)-3-{5-cyano-4-(1,1-difluoroethyl)-3-fluoro-6-[(2S,3R)-3-hydroxy-2-methylazetidin-1-yl]pyridin-2-yl}-3-azabicyclo[3.1.0]hex-6-yl]acetic acid]
11 nM | 3.3 nM | 9.7 nM | 9.7 nM | 12.1 nM | – | – | Cc1c(N2C[C@@H]3[C@@H](CC(=O)O)[C@@H]3C2)nc(N2C[C@@H](O)[C@@H]2C)nc1C(F)(F)F [Example 24, [(1R,5S,6R)-3-{2-[(2S,3R)-3-hydroxy-2-methylazetidin-1-yl]-5-methyl-6-(trifluoromethyl)pyrimidin-4-yl}-3-azabicyclo[3.1.0]hex-6-yl]acetic acid]
– | 2.4 nM | 8.8 nM | 8.8 nM | 10.5 nM | – | – | Cc1c(N2C[C@@H]3[C@@H](CC(=O)O)[C@@H]3C2)nc(N2CC[C@@H]2C)nc1C(F)(F)F [Example 42, [(1R,5S,6R)-3-{5-methyl-2-[(2S)-2-methylazetidin-1-yl]-6-(trifluoromethyl)pyrimidin-4-yl}-3-azabicyclo[3.1.0]hex-6-yl]acetic acid]
– | – | 6.8 nM | – | – | 3.6 nM | 1.5 nM | C[C@H]1[C@H](O)CN1c1nc(N2C[C@@H]3[C@@H](CC(=O)O)[C@@H]3C2)c(Cl)c(C(F)(F)F)c1C#N [Example 2, [(1R,5S,6R)-3-{3-chloro-5-cyano-6-[(2S,3R)-3-hydroxy-2-methylazetidin-1-yl]-4-(trifluoromethyl)pyridin-2-yl}-3-azabicyclo[3.1.0]hex-6-yl]acetic acid]
